{"source": "patent US11672786B2", "about": "“Methods of treating diseases associated with repeat instability” (The Hospital for Sick Children, priority 2016, dated 2023)", "key": {"[1]": {"system": "CASK, ATXN8, and Mfd15 loci in HT1080-(CAG)850 cells", "assay": "repeat-tract lengths of non-expanded loci in HT1080-(CAG)850 cells", "assay_type": "cell-based, human", "conditions": "30 days incubation with or without NA", "description": "FIG. 5 are results from experiments showing that NA induces CAG contractions in HT1080-(CAG)850 cells, independent of proliferation, dependent upon rCAG transcription. […] Panel B of FIG. 5 are histograms showing repeat length distributions in HT1080-(CAG)850 cells. Frequency distribution of unstable alleles is shown by gray bars. Frequency of stable alleles is shown by black bars. To facilitate comparisons, a dashed line indicates the unchanged CAG size. Allele lengths are grouped in bins spanning 50 repeats. […] More than 50 alleles were sized for each group. P-value was calculated by chi-square test (Table 2). […] P-value was calculated by Student's t-test. […] Repeat length distributions and average repeat size changes are shown. […] Quantitative reverse transcription (RT)-PCR was performed using TaqMan Gene Expression assays. […]\nGenomic DNA was extracted from HT1080-(CAG)850 clones and HD primary fibroblasts using the Gentra Puregene Cell Kit (Qiagen, Valencia, Calif.). […] At least 50 alleles were analyzed for each of the three experiments (more than 150 alleles for a total study). […] For the histograms in FIGS. 4D, 4E, 10, 11, 5B, 5D, 5E, 14 and 15B, the Y-axis, “% of repeat population” was calculated by determining the proportion of >50 individual small-pool PCR reactions across the CAG repeat tract, that harbored a certain size of repeat product with a certain length. […]"}, "[2]": {"system": "r(CAG)9", "conditions": "r(CAG)9 immobilization 524 RU; cited from earlier work"}}, "data": [{"substance": "naphthyridine-azaquinolone", "values": [{"measurement": "length variation at CASK, ATXN8, and Mfd15 loci", "setting": "[1]", "value": "Length variation was not observed"}, {"measurement": "changes in the SPR intensity on NA binding", "setting": "[2]", "value": 8, "unit": "RU"}]}]}
